Test results reported in article PMC7281072 (Cancers, 2020).

Columns and labels:
[1] = system: SKOV-3 human ovarian adenocarcinoma xenograft; set-up: species or system CB17 SCID mice; conditions: mouse, in vivo; on MST (mean survival time): test concentration or dose not given here; on TI% (Tumor Inhibition): test concentration or dose not given here
[2] = system: OVCAR-5 human ovarian adenocarcinoma xenograft; set-up: species or system CB17 SCID mice; conditions: mouse, in vivo; on MST (mean survival time): test concentration or dose not given here; on TI% (Tumor Inhibition): test concentration or dose not given here
CB17 SCID mice = conditions: both, mouse, in vivo, ip
in vivo = conditions: both, CB17 SCID, mouse, ip

Structure (SMILES): NC(Cc1ccc(N(CCCl)CCCl)cc1)C(=O)O [L-PAM, 2-amino-3-(4-(bis (2-chloroethyl)amino)phenyl) propanoic acid, reference compound]
- Median Overall Survival (OS) [1]: 49 days
- Progression Free Survival (PFS) [1]: 0 days
- Response Rate (RR) [1]: 0%
- antitumor activity (in words) [1]: no significant antitumor activity
- Cures (mice alive for 120 days after tumor inoculation) ([1]; ip): 0/5
- MST (mean survival time) ([1]; ip): 48.5 ± 2.3 days
- T/C% (mean survival time of treated versus saline controls) ([1]; ip): 119.7%
- TI% (Tumor Inhibition) ([1]; ip): 10.5%
- Median Overall Survival (OS) [2]: 60 days
- Progression Free Survival (PFS) [2]: 0 days
- Response Rate (RR) [2]: 0%
- antitumor activity (in words) [2]: no significant antitumor activity
- Cures (mice alive for 120 days after tumor inoculation) ([2]; ip): 0/5
- MST (mean survival time) ([2]; ip): 61.0 ± 4.3 days
- T/C% (mean survival time of treated versus saline controls) ([2]; ip): 120.8%
- TI% (Tumor Inhibition) ([2]; ip): 24.5%
- LD10 (CB17 SCID mice): 14 mg/kg
- LD50 (in vivo): 20.8 mg/kg
